Results on seven compounds are retold here after patent publication US20250154288A1, “CYTOTOXICITY TARGETING CHIMERAS FOR C-C CHEMOKINE RECEPTOR 2-EXPRESSING CELLS” (GLAXOSMITHKLINE INTELLECTUAL PROPERTY DEVELOPMENT LIMITED, priority 2022, published 2025).

Structures can show the parent of a compound that is named as a salt.

Data set [1] concerns CCR2 expressing cells (CD11b+Ly6c+ Hi) in peripheral blood. The experiment in a line: In Vivo Depletion Assay (flow cytometry of peripheral blood). The arrangement: species or system Human CCR2 (hCCR2) knock-in mice. The settings on record: hCCR2 knock-in mice; IV 0.1 mpk compound + 10 mpk anti-cotinine antibody (mouse IgG2a Fc); peripheral blood at 48 hr. The method, then: (§1) Human CCR2 (hCCR2) knock-in mice (057 background) were dosed intravenously with a PBS solution containing a compound of Formula (I) to measure depletion of CCR2 expressing cells in peripheral blood. Peripheral blood from IV dosed mice was also analyzed to determine PK properties of the ARM compounds of Formula (I).
Stock solution preparation: Stock solutions of compounds of Formula (I) were prepared at 20 mg/mL and 100 mg/mL in DMSO for PK/PD and dose tolerability studies respectively. Stock solutions were stored at −20° C. until further usage.
Formulations preparation: On the day of experiment, the stock solution of the compound of Formula (I) was removed from storage at −20° C. and thawed at room temperature. Anti-cotinine antibody having a heavy chain sequence of SEQ ID NO: 13 and a light chain sequence of SEQ ID NO: 14 (rabbit variable region sequence with mouse IgG2a Fc domain), if required was removed from storage at −80° C. and thawed at room temperature. Antibody vials were immediately transferred into wet ice after thawing. Compounds of Formula (I) were further diluted in DMSO as per experimental requirements.
Formulation composition: The formulation composition was Saline: DMSO: PBS. Saline was added based on the quantity required and then stock solution of the compound of Formula (I) prepared in DMSO, followed by addition of antibody in PBS. Formulations were incubated at room temperature for 30 minutes before administration to the mouse. DMSO was used at 1 to 2% (v/v) in the final formulation.
(§2) Administration to Animal: Solution formulation of antibody and compound of Formula (I) was injected (bolus injection) to the restrained mouse in the right/left lateral tail vein. Animals were dosed with 0.1 milligram per kilogram (mpk) of the compound of Formula (I) and 10 mpk of the anti-cotinine antibody.
(§3) Terminal bleeding at end of experiment (48 hr): Approximately 250 μL of blood in K2EDTA tube and approximately 250 μL of blood in SST (serum separation tube) was collected from each mouse through retro-orbital bleeding under deep isoflurane anesthesia. After bleeding, each mouse was sacrificed by cervical dislocation. The blood distribution at termination was determined as follows: • For PK: 50 μL of K2EDTA blood was transferred to another tube for PK • Flow cytometry: Remaining blood (˜200 μL) was used for flow cytometry analysis. • For serum collection: serum separator tubes (BD) were centrifuged at 4° C., 5000 rpm for 15 minutes. Approximately 100 μL serum was separated and stored at −80° C. for further usage. • Blood drug concentration: Samples collected at the various timepoints (0.25 hr, 2 hr, 24 and 48 hr) were analyzed to determine blood drug concentration.
CCR2 depletion in peripheral blood was determined by flow cytometry. Briefly, peripheral blood was collected from all animals at the end of study termination and processed. Blood samples were lysed using 1×RBC Lysis buffer and the resulting cell pellet was washed twice in FACS buffer (HBSS containing 5% FBS). Cells were subjected to Fc blocking using mouse Fc block from Biolegend (Trustain, anti-mouse CD16/32, Cat: 101319) to block non-specific binding followed by surface staining for immune markers (CD45, CD3, CD11b, Ly6C, human CCR2). Surface staining was done for 30 minutes in ice and cells were washed twice to remove unbound antibodies. Cells were stained with 7AAD to determine viability and acquired on BD FACSVerse flow cytometer. Appropriate FMO controls and single-color controls were included in the experiment for gating and compensation respectively.
Percent depletion of CD11b+Ly6c+ Hi cells and CCR2 expression for the different treatment groups was determined. The results are shown below in Table 4 and are reported as percent (%) depletion of CCR2 expressing cells.
On the technique in general: In flow cytometry, cells or beads pass a laser one at a time.

Data set [2] in a line: Blood drug concentration analysis (LC-MS/MS) in In Vivo Depletion Assay. The settings on record: human CCR2 (hCCR2) knock-in, 057 background, mouse, whole blood, hCCR2 knock-in mice, IV 0.1 mpk compound + 10 mpk anti-cotinine antibody, 48 hours post-dose, read-out: Exposure of Compound of Formula (I) 48 hours post-dose. The method, then: as §1, §2
Collection of Blood for PK: Blood was collected at time points 0.25 hour, 2 hours, and […] following administration (50 μL/time point) through retro-orbital bleeding under mild isoflurane anesthesia.
as §3
Drug concentration in blood samples was determined by an LC-MS/MS-based bioanalytical method developed at Syngene. Samples were analyzed on Q-Trap, API-5500 LC-MS/MS system coupled with Exion UHPLC system from SCIEX, USA operated in multiple reaction monitoring mode employing electrospray ionization technique in positive polarity. Analyte and internal standard peaks were resolved on Synergi Polar, 75×2.0 mm, 4μ column using mobile phase 10 mM Ammonium acetate in Milli-Q water as phase A and 0.1% Formic acid in acetonitrile as Phase B. Gradient elution was performed with initial composition 95% Phase A at 0.0 min, holding it for 0.2 minutes, ramping to 5% by 1.0 minute, keeping the same for next 0.5 minutes and coming back to 95% by 1.6 minutes. The total run time was 2 minutes.
Working dilutions for calibration curve and quality control standards were prepared by serially diluting 20 mg/mL stock solution with DMSO. Spiked concentrations for calibration curve in the whole blood ranged from 1 ng/mL to 1000 ng/mL. The working solution of internal standard (Verapamil, 25 ng/mL) was prepared in acetonitrile. 10 μL of the study sample and calibration curve, quality control, and blank whole blood samples were aliquoted in 96 deep well plates for processing. 10 μL of Milli-Q water was added to all the samples and briefly vortexed to initiate complete hemolysis. 10 μL of 20 mM dithiothreitol (OTT) was added to all the samples and incubated for 30 minutes at 37° C. The addition of DTT enhanced the recovery of ARM compounds of Formula (I) from the biological matrix. 300 μL of working internal standard solution was added to all samples except total blank and wash samples, where 300 μL of acetonitrile was added. All the samples were vortex mixed for 5 minutes, followed by centrifugation at 4000 rpm for 10 minutes at 4° C. Supernatants were transferred to the loading plate and injected 3 μL to LC-MS/MS system for analysis. The results are shown below in Table 4 and are reported as compound exposure 48 hours post-dose

In the case of `CO[C@@H]1COCC[C@@H]1N[C@@H]1CC[C@](CCCCNC(=O)[C@H]2CC[C@H](NC(=O)CCCO[C@H]3CC[C@H](OCCNC(=O)[C@H]4CC(=O)N(C)[C@@H]4c4cccnc4)CC3)CC2)(C(=O)N2CCc3ncc(C(F)(F)F)cc3C2)C1` [Example 7, (2S,3S)-N-(2-(((1R,4S)-4-(4-(((1S,4R)-4-((4-((1S,3R)-3-(((3S,4S)-3-Methoxytetrahydro-2H-pyran-4-yl)amino)-1-(3-(trifluoromethyl)-5,6,7,8-tetrahydro-1,6-naphthyridine-6-carbonyl)cyclopentyl)butyl)carbamoyl)cyclohexyl)amino)-4-oxobutoxy)cyclohexyl)oxy)ethyl)-1-methyl-5-oxo-2-(pyridin-3-yl)pyrrolidine-3-carboxamide], the “% Depletion of CCR2 expressing cells” value in data set [1] is listed as 86.93%. Also, in data set [2], the concentration at 48 h was found to be 54.4 ng/mL.
As to `CO[C@@H]1COCC[C@@H]1N[C@@H]1CC[C@](CCNC(=O)[C@H]2CC[C@H](NC(=O)CCCO[C@H]3CC[C@H](OCCNC(=O)[C@H]4CC(=O)N(C)[C@@H]4c4cccnc4)CC3)CC2)(C(=O)N2CCc3ncc(C(F)(F)F)cc3C2)C1` [Example 8, (2S,3S)-N-(2-(((1R,4S)-4-(4-(((1R,4R)-4-((2-((1R,3R)-3-(((3S,4S)-3-Methoxytetrahydro-2H-pyran-4-yl)amino)-1-(3-(trifluoromethyl)-5,6,7,8-tetrahydro-1,6-naphthyridine-6-carbonyl)cyclopentyl)ethyl)carbamoyl)cyclohexyl)amino)-4-oxobutoxy)cyclohexyl)oxy)ethyl)-1-methyl-5-oxo-2-(pyridin-3-yl)pyrrolidine-3-carboxamide], the “% Depletion of CCR2 expressing cells” value in data set [1] is recorded as 99.22%. Further, the concentration at 48 h in data set [2] was found to be 74.9 ng/mL.
In the same order, the values of `CO[C@@H]1COCC[C@@H]1N[C@@H]1CC[C@](CCCCCNC(=O)[C@H]2CC[C@H](NC(=O)CCCO[C@H]3CC[C@H](OCCNC(=O)[C@H]4CC(=O)N(C)[C@@H]4c4cccnc4)CC3)CC2)(C(=O)N2CCc3ncc(C(F)(F)F)cc3C2)C1` [Example 9, (2S,3S)-N-(2-(((1R,4S)-4-(4-(((1S,4R)-4-((5-((1S,3R)-3-(((3S,4S)-3-Methoxytetrahydro-2H-pyran-4-yl)amino)-1-(3-(trifluoromethyl)-5,6,7,8-tetrahydro-1,6-naphthyridine-6-carbonyl)cyclopentyl)pentyl)carbamoyl)cyclohexyl)amino)-4-oxobutoxy)cyclohexyl)oxy)ethyl)-1-methyl-5-oxo-2-(pyridin-3-yl)pyrrolidine-3-carboxamide] are 99% and 49.8 ng/mL.
The like results for `CO[C@@H]1COCC[C@@H]1N[C@@H]1CC[C@](COCCNC(=O)[C@H]2CC[C@H](NC(=O)CCCO[C@H]3CC[C@H](OCCNC(=O)[C@H]4CC(=O)N(C)[C@@H]4c4cccnc4)CC3)CC2)(C(=O)N2CCc3ncc(C(F)(F)F)cc3C2)C1` [Example 11, (2S,3S)-N-(2-(((1R,4S)-4-(4-(((1S,4R)-4-((2-(((1S,3R)-3-(((3S,4S)-3-Methoxytetrahydro-2H-pyran-4-yl)amino)-1-(3-(trifluoromethyl)-5,6,7,8-tetrahydro-1,6-naphthyridine-6-carbonyl)cyclopentyl)methoxy)ethyl)carbamoyl)cyclohexyl)amino)-4-oxobutoxy)cyclohexyl)oxy)ethyl)-1-methyl-5-oxo-2-(pyridin-3-yl)pyrrolidine-3-carboxamide] were, in that order, 89.3% and 85.1 ng/mL.
In the same order, the values of `CO[C@@H]1COCC[C@@H]1N[C@@H]1CC[C@@](C(=O)N2Cc3cc(C(F)(F)F)cnc3[C@H](NC(=O)[C@H]3CC[C@H](NC(=O)CCCO[C@H]4CC[C@H](OCCNC(=O)[C@H]5CC(=O)N(C)[C@@H]5c5cccnc5)CC4)CC3)C2)(C(C)C)C1` [Example 14, (2S,3S)-N-(2-(((1R,4S)-4-(4-(((1R,4R)-4-(((R)-6-((1S,3R)-1-isopropyl-3-(((3S,4S)-3-methoxytetrahydro-2H-pyran-4-yl)amino)cyclopentane-1-carbonyl)-3-(trifluoromethyl)-5,6,7,8-tetrahydro-1,6-naphthyridin-8-yl)carbamoyl)cyclohexyl)amino)-4-oxobutoxy)cyclohexyl)oxy)ethyl)-1-methyl-5-oxo-2-(pyridin-3-yl)pyrrolidine-3-carboxamide, 3Formic acid salt] are 92.3% and 41.4 ng/mL.
On to `CO[C@@H]1COCC[C@@H]1N[C@@H]1CC[C@@](C(=O)N2Cc3cc(C(F)(F)F)cnc3[C@@H](NC(=O)[C@H]3CC[C@H](NC(=O)CCCO[C@H]4CC[C@H](OCCNC(=O)[C@H]5CC(=O)N(C)[C@@H]5c5cccnc5)CC4)CC3)C2)(C(C)C)C1` [Example 15, (2S,3S)-N-(2-(((1R,4S)-4-(4-(((1S,4R)-4-(((S)-6-((1S,3R)-1-isopropyl-3-(((3S,4S)-3-methoxytetrahydro-2H-pyran-4-yl)amino)cyclopentane-1-carbonyl)-3-(trifluoromethyl)-5,6,7,8-tetrahydro-1,6-naphthyridin-8-yl)carbamoyl)cyclohexyl)amino)-4-oxobutoxy)cyclohexyl)oxy)ethyl)-1-methyl-5-oxo-2-(pyridin-3-yl)pyrrolidine-3-carboxamide], for which, in data set [1], the “% Depletion of CCR2 expressing cells” value was 94.04%. Besides, the concentration at 48 h in data set [2] was found to be 35 ng/mL.
For the compound `CO[C@@H]1COCC[C@@H]1N[C@@H]1CC[C@](CCCNC(=O)[C@H]2CC[C@@H](NC(=O)CCOCCOCCOCCNC(=O)[C@H]3CC(=O)N(C)[C@@H]3c3cccnc3)CC2)(C(=O)N2CCc3ncc(C(F)(F)F)cc3C2)C1` [Example 17, (2S,3S)—N-(2-(2-(2-(3-(((1R,4s)-4-((3-((1S,3R)-3-(((3S,4S)-3-Methoxytetrahydro-2H-pyran-4-yl)amino)-1-(3-(trifluoromethyl)-5,6,7,8-tetrahydro-1,6-naphthyridine-6-carbonyl)cyclopentyl)propyl)carbamoyl)cyclohexyl)amino)-3-oxopropoxy)ethoxy)ethoxy)ethyl)-1-methyl-5-oxo-2-(pyridin-3-yl)pyrrolidine-3-carboxamide, Formic acid salt], the “% Depletion of CCR2 expressing cells” value in data set [1] is given as 96.07%. In data set [2], the concentration at 48 h was determined as 28.3 ng/mL.
